According to the NIST ThermoML archive (doi:10.1021/je020131a):
Numbers after ± are expanded uncertainties.

What was measured:
[1] = xn = mol fraction of the nth substance listed; conditions: 101.3 kPa, Liquid, Falling or rolling sphere viscometry
[2] = Liquid; for viscosity: 101.3 kPa, Falling or rolling sphere viscometry

CCCCCCC [heptane] + CCOC(=O)OCC
[1], x2 = 0
Conditions | viscosity [mPa·s]
293.15 K | 0.411 ± 0.02
298.15 K | 0.388 ± 0.02
303.15 K | 0.375 ± 0.02
313.15 K | 0.334 ± 0.02

CCCCCCCC [octane] + COC(=O)OC
[1], x2 = 0
Conditions | viscosity [mPa·s]
293.15 K | 0.545 ± 0.021
298.15 K | 0.513 ± 0.021
303.15 K | 0.484 ± 0.02
313.15 K | 0.434 ± 0.02

CCCCCCCC [octane]
[2]
Conditions | viscosity [mPa·s]
293.15 K | 0.545 ± 0.021
298.15 K | 0.513 ± 0.021
303.15 K | 0.484 ± 0.02
313.15 K | 0.434 ± 0.02

Conditions | mass density [kg/m3]
[2], 298.15 K, 101.33 kPa, Vibrating tube method | 698.5 ± 0.4

CCOC(=O)OCC [diethyl carbonate] + CCCCCC
[1]
Conditions | viscosity [mPa·s]
293.15 K, x1 = 0.0576 | 0.318 ± 0.02
293.15 K, x1 = 0.1106 | 0.326 ± 0.02
293.15 K, x1 = 0.2219 | 0.353 ± 0.02
293.15 K, x1 = 0.3358 | 0.388 ± 0.02
293.15 K, x1 = 0.4303 | 0.422 ± 0.02
293.15 K, x1 = 0.5384 | 0.471 ± 0.02
293.15 K, x1 = 0.6357 | 0.524 ± 0.02
293.15 K, x1 = 0.7334 | 0.588 ± 0.021
293.15 K, x1 = 0.8246 | 0.652 ± 0.021
293.15 K, x1 = 0.9171 | 0.721 ± 0.021
293.15 K, x1 = 0.9589 | 0.757 ± 0.021
293.15 K, x1 = 1 | 0.795 ± 0.021
298.15 K, x1 = 0.0586 | 0.318 ± 0.02
298.15 K, x1 = 0.1024 | 0.323 ± 0.02
298.15 K, x1 = 0.2106 | 0.347 ± 0.02
298.15 K, x1 = 0.305 | 0.37 ± 0.02
298.15 K, x1 = 0.3592 | 0.389 ± 0.02
298.15 K, x1 = 0.4259 | 0.412 ± 0.02
298.15 K, x1 = 0.5719 | 0.475 ± 0.02
298.15 K, x1 = 0.7051 | 0.546 ± 0.02
298.15 K, x1 = 0.7965 | 0.605 ± 0.021
298.15 K, x1 = 0.8894 | 0.67 ± 0.021
298.15 K, x1 = 0.9095 | 0.688 ± 0.021
298.15 K, x1 = 0.9794 | 0.737 ± 0.021
298.15 K, x1 = 1 | 0.749 ± 0.021
303.15 K, x1 = 0.0583 | 0.292 ± 0.02
303.15 K, x1 = 0.0941 | 0.299 ± 0.02
303.15 K, x1 = 0.1925 | 0.324 ± 0.02
303.15 K, x1 = 0.2897 | 0.347 ± 0.02
303.15 K, x1 = 0.3927 | 0.378 ± 0.02
303.15 K, x1 = 0.5087 | 0.42 ± 0.02
303.15 K, x1 = 0.6072 | 0.463 ± 0.02
303.15 K, x1 = 0.7059 | 0.512 ± 0.02
303.15 K, x1 = 0.8002 | 0.568 ± 0.02
303.15 K, x1 = 0.8947 | 0.628 ± 0.021
303.15 K, x1 = 0.9532 | 0.672 ± 0.021
303.15 K, x1 = 1 | 0.699 ± 0.021
313.15 K, x1 = 0.0502 | 0.264 ± 0.02
313.15 K, x1 = 0.1001 | 0.278 ± 0.02
313.15 K, x1 = 0.2001 | 0.295 ± 0.02
313.15 K, x1 = 0.3008 | 0.318 ± 0.02
313.15 K, x1 = 0.4021 | 0.344 ± 0.02
313.15 K, x1 = 0.4972 | 0.371 ± 0.02
313.15 K, x1 = 0.5992 | 0.41 ± 0.02
313.15 K, x1 = 0.7005 | 0.454 ± 0.02
313.15 K, x1 = 0.8096 | 0.509 ± 0.02
313.15 K, x1 = 0.898 | 0.558 ± 0.02
313.15 K, x1 = 0.9671 | 0.599 ± 0.021
313.15 K, x1 = 1 | 0.623 ± 0.021

CCCCCCCC [octane] + CCOC(=O)OCC
[1], x2 = 0
Conditions | viscosity [mPa·s]
293.15 K | 0.545 ± 0.021
298.15 K | 0.513 ± 0.021
303.15 K | 0.484 ± 0.02
313.15 K | 0.434 ± 0.02

CCOC(=O)OCC [diethyl carbonate] + CCCCCCCC
[1]
Conditions | viscosity [mPa·s]
293.15 K, x1 = 0.0504 | 0.535 ± 0.021
293.15 K, x1 = 0.099 | 0.528 ± 0.021
293.15 K, x1 = 0.1947 | 0.529 ± 0.021
293.15 K, x1 = 0.2939 | 0.535 ± 0.021
293.15 K, x1 = 0.3911 | 0.55 ± 0.021
293.15 K, x1 = 0.4965 | 0.574 ± 0.021
293.15 K, x1 = 0.6012 | 0.604 ± 0.021
293.15 K, x1 = 0.6971 | 0.641 ± 0.021
293.15 K, x1 = 0.7996 | 0.684 ± 0.021
293.15 K, x1 = 0.8871 | 0.727 ± 0.021
293.15 K, x1 = 0.9502 | 0.763 ± 0.021
293.15 K, x1 = 1 | 0.795 ± 0.021
298.15 K, x1 = 0.0568 | 0.514 ± 0.021
298.15 K, x1 = 0.1069 | 0.51 ± 0.02
298.15 K, x1 = 0.1985 | 0.511 ± 0.02
298.15 K, x1 = 0.2979 | 0.515 ± 0.02
298.15 K, x1 = 0.3968 | 0.528 ± 0.02
298.15 K, x1 = 0.5035 | 0.551 ± 0.021
298.15 K, x1 = 0.605 | 0.578 ± 0.021
298.15 K, x1 = 0.7054 | 0.614 ± 0.021
298.15 K, x1 = 0.8042 | 0.653 ± 0.021
298.15 K, x1 = 0.9035 | 0.698 ± 0.021
298.15 K, x1 = 0.9549 | 0.728 ± 0.021
298.15 K, x1 = 1 | 0.749 ± 0.021
303.15 K, x1 = 0.0504 | 0.485 ± 0.02
303.15 K, x1 = 0.1002 | 0.485 ± 0.02
303.15 K, x1 = 0.2035 | 0.486 ± 0.02
303.15 K, x1 = 0.2953 | 0.494 ± 0.02
303.15 K, x1 = 0.3942 | 0.507 ± 0.02
303.15 K, x1 = 0.5035 | 0.525 ± 0.02
303.15 K, x1 = 0.6019 | 0.55 ± 0.02
303.15 K, x1 = 0.7055 | 0.58 ± 0.021
303.15 K, x1 = 0.8011 | 0.613 ± 0.021
303.15 K, x1 = 0.8999 | 0.654 ± 0.021
303.15 K, x1 = 0.9498 | 0.677 ± 0.021
303.15 K, x1 = 1 | 0.699 ± 0.021
313.15 K, x1 = 0.0495 | 0.436 ± 0.02
313.15 K, x1 = 0.0984 | 0.44 ± 0.02
313.15 K, x1 = 0.1957 | 0.448 ± 0.02
313.15 K, x1 = 0.2957 | 0.459 ± 0.02
313.15 K, x1 = 0.3958 | 0.472 ± 0.02
313.15 K, x1 = 0.4982 | 0.488 ± 0.02
313.15 K, x1 = 0.6036 | 0.508 ± 0.02
313.15 K, x1 = 0.6992 | 0.529 ± 0.02
313.15 K, x1 = 0.7994 | 0.554 ± 0.02
313.15 K, x1 = 0.8992 | 0.586 ± 0.021
313.15 K, x1 = 0.9502 | 0.608 ± 0.021
313.15 K, x1 = 1 | 0.623 ± 0.021
